In PubChem BioAssay AID1259407 (Chemical Carcinogenesis Research Information System (CCRIS), 2018):
Calls of active or inactive are those of the source. No rule for the calls is given here.

Tested on: CCRIS mutagenicity, Ames/micronucleus/aberration tests
Experiment: CCRIS mutagenicity studies
Conditions: Test System: AMES SALMONELLA TYPHIMURIUM

Measured: mutagenic call

C1O[C@@H]1[C@@H]1CO1
inactive: Strain/Indicator: TA98, Metabolic Activation: HAMSTER, LIVER, S-9, AROCLOR 1254, Method: PREINCUBATION inactive; negative | Strain/Indicator: TA98, Metabolic Activation: HAMSTER, LIVER, S-9, AROCLOR 1254, Method: STANDARD PLATE inactive; negative | Strain/Indicator: TA98, Metabolic Activation: HAMSTER, LIVER, S-9, Method: PREINCUBATION inactive; negative | Strain/Indicator: TA98, Metabolic Activation: HAMSTER, LIVER, S-9, Method: STANDARD PLATE inactive; negative | Strain/Indicator: TA98, Metabolic Activation: MOUSE, LIVER, S-9, AROCLOR 1254, Method: PREINCUBATION inactive; negative | Strain/Indicator: TA98, Metabolic Activation: MOUSE, LIVER, S-9, AROCLOR 1254, Method: STANDARD PLATE inactive; negative | Strain/Indicator: TA98, Metabolic Activation: MOUSE, LIVER, S-9, Method: PREINCUBATION inactive; negative | Strain/Indicator: TA98, Metabolic Activation: MOUSE, LIVER, S-9, Method: STANDARD PLATE inactive; negative | Strain/Indicator: TA98, Metabolic Activation: NONE, Method: PREINCUBATION inactive; negative | Strain/Indicator: TA98, Metabolic Activation: NONE, Method: STANDARD PLATE inactive; negative | Strain/Indicator: TA98, Metabolic Activation: RAT, LIVER, S-9, AROCLOR 1254, Method: PREINCUBATION inactive; negative | Strain/Indicator: TA98, Metabolic Activation: RAT, LIVER, S-9, Method: PREINCUBATION inactive; negative | Strain/Indicator: TA98, Metabolic Activation: RAT, LIVER, S-9, Method: STANDARD PLATE inactive; negative | Strain/Indicator: TA100, Metabolic Activation: HAMSTER, LIVER, S-9, AROCLOR 1254, Method: PREINCUBATION inactive; negative | Strain/Indicator: TA100, Metabolic Activation: HAMSTER, LIVER, S-9, Method: PREINCUBATION inactive; negative | Strain/Indicator: TA100, Metabolic Activation: MOUSE, LIVER, S-9, AROCLOR 1254, Method: PREINCUBATION inactive; negative | Strain/Indicator: TA100, Metabolic Activation: MOUSE, LIVER, S-9, Method: PREINCUBATION inactive; negative | Strain/Indicator: TA100, Metabolic Activation: NONE, Method: PREINCUBATION inactive; negative | Strain/Indicator: TA100, Metabolic Activation: RAT, LIVER, S-9, AROCLOR 1254, Method: PREINCUBATION inactive; negative | Strain/Indicator: TA100, Metabolic Activation: RAT, LIVER, S-9, Method: PREINCUBATION inactive; negative
active: Strain/Indicator: TA100, Metabolic Activation: HAMSTER, LIVER, S-9, AROCLOR 1254, Method: STANDARD PLATE active; positive | Strain/Indicator: TA100, Metabolic Activation: HAMSTER, LIVER, S-9, Method: STANDARD PLATE active; positive | Strain/Indicator: TA100, Metabolic Activation: MOUSE, LIVER, S-9, AROCLOR 1254, Method: STANDARD PLATE active; positive | Strain/Indicator: TA100, Metabolic Activation: NONE, Method: STANDARD PLATE active; positive | Strain/Indicator: TA100, Metabolic Activation: RAT, LIVER, S-9, Method: STANDARD PLATE active; positive | Strain/Indicator: TA1535, Metabolic Activation: HAMSTER, LIVER, S-9, AROCLOR 1254, Method: PREINCUBATION active; positive | Strain/Indicator: TA1535, Metabolic Activation: HAMSTER, LIVER, S-9, AROCLOR 1254, Method: STANDARD PLATE active; positive | Strain/Indicator: TA1535, Metabolic Activation: HAMSTER, LIVER, S-9, Method: PREINCUBATION active; positive | Strain/Indicator: TA1535, Metabolic Activation: HAMSTER, LIVER, S-9, Method: STANDARD PLATE active; positive | Strain/Indicator: TA1535, Metabolic Activation: MOUSE, LIVER, S-9, AROCLOR 1254, Method: PREINCUBATION active; positive | Strain/Indicator: TA1535, Metabolic Activation: MOUSE, LIVER, S-9, AROCLOR 1254, Method: STANDARD PLATE active; positive | Strain/Indicator: TA1535, Metabolic Activation: MOUSE, LIVER, S-9, Method: PREINCUBATION active; positive | Strain/Indicator: TA1535, Metabolic Activation: MOUSE, LIVER, S-9, Method: STANDARD PLATE active; positive | Strain/Indicator: TA1535, Metabolic Activation: NONE, Method: PREINCUBATION active; positive | Strain/Indicator: TA1535, Metabolic Activation: NONE, Method: STANDARD PLATE active; positive | Strain/Indicator: TA1535, Metabolic Activation: RAT, LIVER, S-9, AROCLOR 1254, Method: PREINCUBATION active; positive
